Experimental data taken from US20070254932A1, “Drugs for Treating Duplication of Hypertension With Hyperuricemia and/or Hypercholesterolemia” (priority 2004, published 2007).

Columns and labels:
[1] = system: patients with mild or moderate essential hypertension; assay: Serum cholesterol level in patients with essential hypertension; format: in vivo, human
Protocol: 107 patients with mild or moderate essential hypertension were administered at dose of from 40 to 160 mg/day was administered every four weeks by degrees if the hypotensive action was insufficient. Serum cholesterol level before pratosartan administration was compared with that of the last day during pratosartan administration in each patient. Also, a part of patients were other co-administered pratosartan and conventionally known hypolipidemic drugs. General names of co-administered drugs, doses and number of patients were as follows. Namely, the list was pravastatin (10 mg/day, 3 patients), simvastatin (5 mg/day, 3 patients), cerivastatin (0.15 mg/day, 2 patients), atorvastatin (5 mg/day, 1 patients), fenofibrate (150 mg/day, 1 patient) and probucol (500 mg/day, 1 patient). The results when the patients were classified in the presence and absence of other co-administered drugs, were shown in table 6 and 7. The result in the presence of co-administered drugs was shown in table 6, and the result in the absence of co-administered drug was shown in […]. Further, data were shown mean±standard deviation.

male 6 weeks old SD rats = assay: Uricosuric action estimated by delayed disappearance of blood phenol red; format: in vivo, rat; details: for The enhance rate of uric acid excretion (%): phenol red 75 mg/kg i.v. 3 h later, serum 1 h after, control group = 100%, mean ± SD
Protocol: The uricosuric action is estimated by the delayed disappearance of blood phenol red level as a marker. Namely, male 6 weeks old SD rats were orally administered 0.5% methylcellulose (MC) or pratosartan (30 mg/kg or 100 mg/kg), and after three hours, phenol red solution (75 mg/kg) was intravenously adirninstered. One hour after phenol red administration, blood sample was collected from abdominal aorta under ether anesthesia, and the amount of phenol red in serum was determined. The amount of phenol red level in control group was taken as 100%, and the delayed rate of phenol red disappearance from blood in pratosartan treated group was estimated as the enhance rate of uric acid excretion (%). In table 1, experimental groups, subject substances, doses and the enhance rates of uric acid excretion (mean±standard deviation).

[2] = system: patients with mild and moderate essential hypertension complicated with hyperuricemia; assay: Serum uric acid level in hypertensive patients complicated with hyperuricemia; format: in vivo, human; details: 17 patients, 40 to 160 mg/day
Protocol: Studies were carried out intended for mild and moderate essential hypertension. 17 patients complicated with hyperuricemia were administered pratosartan, and serum uric acid levels (mg/dL) before drug administration and the last day during administration were determined. Further, the dose of from 40 to 160 mg/day was administered every four weeks by degrees if the hypotensive action was insufficient.

[3] = system: SHR (Spontaneously hypertensive rat); assay: Systolic blood pressure of SHR by tail cuff method; format: in vivo; details: 5 hours after administration, HCTZ 10 mg/kg, pratosartan 3 mg/kg, mean ± SD, in mmHg (unit assumed); for systolic blood pressure level, Day 1: before drug 220-222
Protocol: The systolic blood pressure level of male 20 weeks old SHR (Spontaneously hypertensive rat, SPF grade) was measured by tail cuff methods, and animals were randomized into 4 groups to balance the systolic blood pressure level among groups. 0.5% methylcellulose (MC) or drugs suspended in 0.5% MC were administered for 28 days, and systolic blood pressure levels after 5 hours of drug administration were measured at day 1, 7, 14 and 28. In table 3 , experimental groups, subject substances, doses, and the measured blood pressure levels (mean±standard deviation) were shown in table 4. Further, the subject substances were hydrochlorothiazide (HCTZ), pratosartan, and co-administration of HCTZ and pratosartan. The dose of HCTZ and pratosartan were 10 mg/kg and 3 mg/kg, respectively, and the dosage volume was 2 mL/kg in each case.

| SMILES | Serum cholesterol level, the last day during administration ([1]; 12 patients with co-administered hypolipidemic drugs, before drug administration 250.25 ± 45.16) [mg/dL] | Serum cholesterol level, difference ([1]; 12 patients with co-administered hypolipidemic drugs, paired t-test P < 0.05) [mg/dL] | Serum cholesterol level, the last day during administration ([1]; 95 patients without co-administered drug, before drug administration 206.28 ± 39.81) [mg/dL] | Serum cholesterol level, difference ([1]; 95 patients without co-administered drug, paired t-test P < 0.01) [mg/dL] | Serum cholesterol level, the last day during administration ([1]; all 107 patients, 40 to 160 mg/day, before drug administration 211.2 ± 42.6) [mg/dL] | Serum cholesterol level, difference ([1]; all 107 patients, 40 to 160 mg/day, paired t-test P < 0.0001) [mg/dL] | The enhance rate of uric acid excretion (%) (male 6 weeks old SD rats; 30 mg/kg oral) | The enhance rate of uric acid excretion (%) (male 6 weeks old SD rats; 100 mg/kg oral) | excretion of uric acid (male 6 weeks old SD rats; SD rats, 30 or 100 mg/kg oral) | Serum uric acid level, the last day during administration ([2]; before drug administration 8.0 ± 1.1) [mg/dL] | Serum uric acid level, difference ([2]; last day during administration versus before drug administration) [mg/dL] | systolic blood pressure level, Day 1 [3] | systolic blood pressure level, Day 7 [3] | systolic blood pressure level, Day 14 [3] | systolic blood pressure level, Day 28 [3] |
| --- | --- | --- | --- | --- | --- | --- | --- | --- | --- | --- | --- | --- | --- | --- | --- |
| CCCc1nc2c(n1Cc1ccc(-c3ccccc3-c3nnn[nH]3)cc1)C(=O)CCCC2 [pratosartan, 2-propyl-3-{[2′-(1H-tetrazole-5-yl)biphenyl-4-yl]methyl}-5,6,7,8-tetrahydrocyclohepta imidazole-4-(3H)-one] | 214.58 ± 37.31 | -35.67 ± 41.49 | 197.66 ± 40.33 | -8.62 ± 26.60 | 199.6 ± 40.2 | -11.7 ± 29.7 | 105 ± 10 | 172 ± 17 | enhance the excretion of uric acid | 7.4 ± 1.0 | -0.7 ± 1.3 | 206 ± 2 | 190 ± 3 | 190 ± 1 | 189 ± 1 |
| NS(=O)(=O)c1cc2c(cc1Cl)NCNS2(=O)=O [HCTZ, hydrochlorothiazide, reference compound] | – | – | – | – | – | – | – | – | – | – | – | 220 ± 2 | 219 ± 3 | 219 ± 4 | 214 ± 2 |
